Earlier results in patent US5026825A, “Intranasal calcitonin formulations” (Rhone-Poulenc Rorer Pharmaceuticals Inc., priority 1988, dated 1991).
Where two headings read alike, the source gives them in different places. Ends that are not written are not given here.

Settings: for potency (level of hypocalcemic activity): in vivo
[1] = calcitonins used in Examples 7-10, from cited US patents

Substance	potency [1]	potency (level of hypocalcemic activity)	also measured
1A-endo-glycine-calcitonin	4,650 IU/mg	–	–
chicken calcitonin (CASLSTCVLGKLSQELHKLQTYPRTDVGAGTP; ends and bridges not checked; cysteine pairing not given here; UniProt P07660 82-113, looked up) [natural calcitonin of chicken]	–	4,000 to 6,000 MCR (Medical Research Council) U/mg peptide	–
rat calcitonin: natural calcitonin of rat (CGNLSTCMLGTYTQDLNKFHTFPQTSIGVGAP; ends and bridges not checked; cysteine pairing not given here; UniProt P01257 85-116, looked up)	–	400 MRC U/mg	–
hog calcitonin: natural calcitonin of hog (porcine) (CSNLSTCVLSAYWRNLNNFHRFSGMGFGPETP; ends and bridges not checked; cysteine pairing not given here; UniProt P01259 1-32, looked up)	–	100 to 200 MRC U/mg peptide	–
Glycine^8 -D-Arginine^24 Calcitonins	3,500 IU/mg	–	–
man calcitonin: natural calcitonin of man (human)	–	100 to 200 MRC U/mg peptide	–
eel calcitonin	–	2,000 to 4,000 MRC U/mg peptide	–
[16-Alanine] Calcitonins [16-alanine calcitonin]	6,200 IU/mg	–	–
beef calcitonin: natural calcitonin of beef (bovine) (CSNLSTCVLSAYWKDLNNYHRFSGMGFGPETP; ends and bridges not checked; cysteine pairing not given here; UniProt P01260 1-32, looked up)	–	100 to 200 MRC U/mg peptide	–
Des asparagine-3-Calcitonins	–	–	potency (calcitonin used in Example 6, USP 4,391,747): 4,300 MRC units/mg
D-Arginine^24 Calcitonins	5,000 IU/mg	–	–
